Data: patent US20040180961A1, “Compositions and preparation methods for bioavailable oral aceclofenac dosage forms” (priority 2001, published 2004)

Test: Dissolution of aceclofenac in pure artificial gastric juice (paddle method)
Format: physicochemical
Experimental: The pharmaceutical preparation containing acelcofenac was completely dissolved in 500 ml of an ethanol solution containing phosphate buffer (pH 6.8) at a volume ratio of 50%, where a preparation further containing substances of low solubility was shaken for 10 min. The resultant solution was centrifuged at 15,000 rpm for 2 min, and then filtered with a 0.45 μm membrane filter. After properly diluting 1 ml of the filtered solution, sample was used in quantification of aceclofenac, using HPLC. In a analysis of aceclofenac, a column was C18 ODS column (4.6×150 mm, 5 μm), an absorbance was at a wave length of 282 nm, a mobile phase was a mixture of MeOH:0.02 M KH2PO4 (65:35), a flow rate was 1 ml/min. 20 μl of sample was injected. Quantification of aceclofenac was accomplished with width ratio of aceclofenac and internal standard (Ethyl paraben).
Dissolution rate of acelcofenac contained in the pharmaceutical preparation was analyzed according to the dissolution test method disclosed in a guidebook “Korea Pharmacopeia (7th revision)”. A NaCl—HCl buffer solution (pH 1.4±0.1) was used as artificial gastric juice, supplemented with Tween 80 in a volume ratio of 0.3% according to intended use. 0.02 M phosphate-buffered solution (pH 6.8±0.1) was used as an artificial intestinal juice. Dissolution was performed according to the paddle method at a stirring rate of 50 rpm and a dissolution temperature of 37±0.5° C., using 500 ml of dissolution solution. […] The collected sample was centrifuged at 15,000 rpm for 2 min and filtered using a 0.45 μm membrane filter. Quantification of aceclofenac was accomplished by using HPLC. In analyzing the dissolution rate of aceclofenac, column was C18 ODS column (4.6×150 mm, 5 μm), absorbance was a wave length of 282 nm, a mobile phase was a mixture of MeOH:0.02 M KH2PO4 (65:35), and a flow rate was 1 ml/min. 20 μl of sample was injected. Quantification of aceclofenac was accomplished with width ratio of aceclofenac and internal standard (Ethyl paraben) Dissolution rate (%) of aceclofenac contained in the solid powder preparations, prepared in example, was measured according to Experimental 5. Content of aceclofenac obtained in Experimental Example 4 was used as 100% and dissolution rate of aceclofenac contained in the solid powder preparations prepared in example was given as a percentage. Dissolution concentration (μg/ml) and dissolution rate (%) of aceclofenac contained in solid powder preparation in artificial gastric juice were measured, the results are given in Tables 1 to 3, below, […]

Dissolution concentration (15 min): 0.075 µg/mL
Dissolution rate (15 min): (0.04) %
Dissolution concentration (30 min): 0.063 µg/mL
Dissolution rate (30 min): (0.03) %
Dissolution concentration (45 min): 0.088 µg/mL
Dissolution rate (45 min): (0.05) %
Dissolution concentration (60 min): 0.090 µg/mL
Dissolution rate (60 min): (0.05) %
Dissolution concentration (90 min): 0.236 µg/mL
Dissolution rate (90 min): (0.12) %
Compound: O=C(O)COC(=O)Cc1ccccc1Nc1c(Cl)cccc1Cl [Aceclofenac]
